The values below come from ChEMBL document CHEMBL1759863, “Synthesis and biological activity of hydroxy substituted phenyl-benzo[d]thiazole analogues for antityrosinase activity in B16 cells” (Bioorg Med Chem Lett, 2011).

Data set [1] relates to B16. In words: cells. The conditions noted are these: Mus musculus, B16, 24 h, read-out: INH.
Description: Inhibition of alpha-MSH-induced melanin production in mouse B16 cells at 1 uM after 24 hrs relative to control
The target in data set [2] is T1, Tyrosinase (Mus musculus) (UniProt P11344).
T1 sequence (whole entry): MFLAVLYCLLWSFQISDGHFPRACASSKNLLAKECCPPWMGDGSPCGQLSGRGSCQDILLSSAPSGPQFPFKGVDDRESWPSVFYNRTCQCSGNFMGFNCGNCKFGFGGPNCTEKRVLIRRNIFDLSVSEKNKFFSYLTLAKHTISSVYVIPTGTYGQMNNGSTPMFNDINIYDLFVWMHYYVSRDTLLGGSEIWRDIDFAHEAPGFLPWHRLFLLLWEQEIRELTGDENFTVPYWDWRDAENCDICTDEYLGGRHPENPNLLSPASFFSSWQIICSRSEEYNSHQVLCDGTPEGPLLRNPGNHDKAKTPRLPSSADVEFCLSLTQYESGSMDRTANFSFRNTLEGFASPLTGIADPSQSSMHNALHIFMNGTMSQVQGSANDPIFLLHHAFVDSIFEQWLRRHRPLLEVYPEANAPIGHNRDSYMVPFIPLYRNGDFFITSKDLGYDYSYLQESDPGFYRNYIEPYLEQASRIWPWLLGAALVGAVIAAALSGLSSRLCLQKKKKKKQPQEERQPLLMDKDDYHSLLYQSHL
In words: Inhibition of tyrosinase in alpha-MSH-induced mouse B16 cells at 5 uM. The format is cell-based.

Data set [3] deals with T1, Tyrosinase (Mus musculus). In words: Inhibition of tyrosinase in alpha-MSH-induced mouse B16 cells at 10 uM. The format is cell-based.
The test system of data set [4] is B16. In words: cells. The conditions noted are these: Mus musculus, B16, 24 h, read-out: INH. The source holds these as a separate data set.
Description: Inhibition of alpha-MSH-induced melanin production in mouse B16 cells at 2.5 uM after 24 hrs relative to control
Data set [5] deals with B16. In words: Cytotoxicity against mouse B16 cells assessed as viable cells at 1 uM after 48 hrs by MTT assay relative to control. Particulars: B16, 48 h, read-out: Activity. Type of data set: functional.
Data set [6] has as its system B16. In words: cells. The conditions noted are these: Mus musculus, B16, 24 h, read-out: INH. The source holds these as a separate data set.
Description: Inhibition of alpha-MSH-induced melanin production in mouse B16 cells at 0.2 uM after 24 hrs relative to control
The target of data set [7] is T2, Tyrosinase (Agaricus bisporus, UniProt O42713).
T2 sequence (O42713 whole entry): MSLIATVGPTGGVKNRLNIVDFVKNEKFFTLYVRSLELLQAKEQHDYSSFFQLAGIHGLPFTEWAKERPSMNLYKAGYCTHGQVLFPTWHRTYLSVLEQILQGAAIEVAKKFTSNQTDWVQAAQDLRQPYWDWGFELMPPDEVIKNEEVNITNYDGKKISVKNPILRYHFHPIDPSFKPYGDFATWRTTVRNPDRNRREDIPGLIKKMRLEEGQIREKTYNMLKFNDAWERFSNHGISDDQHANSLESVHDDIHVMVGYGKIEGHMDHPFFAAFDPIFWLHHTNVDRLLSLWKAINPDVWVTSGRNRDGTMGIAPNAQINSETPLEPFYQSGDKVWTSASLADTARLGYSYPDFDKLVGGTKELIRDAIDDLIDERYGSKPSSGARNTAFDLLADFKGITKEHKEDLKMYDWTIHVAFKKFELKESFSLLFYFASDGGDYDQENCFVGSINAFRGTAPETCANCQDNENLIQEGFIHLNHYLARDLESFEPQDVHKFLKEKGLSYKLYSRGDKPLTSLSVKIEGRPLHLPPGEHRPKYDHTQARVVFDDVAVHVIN
Description: Inhibition of mushroom tyrosinase at 1.25 uM by Lineweaver-Burk plot analysis

Data set [8] relates to B16. In words: Cytotoxicity against mouse B16 cells assessed as viable cells at 5 uM after 48 hrs by MTT assay relative to control. Particulars: B16, 48 h, read-out: Activity. The format is functional.
The target of data set [9] is T3, Tyrosinase (Agaricus bisporus) (UniProt O42713).
T3 sequence (whole entry): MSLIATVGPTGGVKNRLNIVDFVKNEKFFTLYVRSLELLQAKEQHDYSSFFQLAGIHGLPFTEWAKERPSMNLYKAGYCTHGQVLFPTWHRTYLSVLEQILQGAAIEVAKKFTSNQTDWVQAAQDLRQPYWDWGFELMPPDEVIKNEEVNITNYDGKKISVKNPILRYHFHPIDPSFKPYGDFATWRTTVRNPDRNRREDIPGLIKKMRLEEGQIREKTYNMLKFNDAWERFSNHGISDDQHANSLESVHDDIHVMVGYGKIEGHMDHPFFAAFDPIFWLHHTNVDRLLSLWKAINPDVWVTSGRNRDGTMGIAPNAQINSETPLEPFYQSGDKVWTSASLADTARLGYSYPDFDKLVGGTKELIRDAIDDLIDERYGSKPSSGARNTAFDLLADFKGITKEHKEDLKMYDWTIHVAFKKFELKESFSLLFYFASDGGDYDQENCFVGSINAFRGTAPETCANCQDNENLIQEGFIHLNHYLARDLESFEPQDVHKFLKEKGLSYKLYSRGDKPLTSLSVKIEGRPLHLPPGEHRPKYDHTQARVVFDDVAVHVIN
In words: Inhibition of mushroom tyrosinase at 0.08 uM using L-tyrosine as a substrate.

The subject of data set [10] is B16. In words: Cytotoxicity against mouse B16 cells assessed as viable cells at 0.2 uM after 48 hrs by MTT assay relative to control. The format is functional. The conditions noted are these: B16, 48 h, read-out: Activity.
Data set [11] has as its target T3, Tyrosinase (Agaricus bisporus). In words: Inhibition of mushroom tyrosinase at 0.01 uM using L-tyrosine as a substrate.
In data set [12] the test system is B16. In words: Cytotoxicity against mouse B16 cells assessed as viable cells at 2.5 uM after 48 hrs by MTT assay relative to control. Type of data set: functional. Particulars: B16, 48 h, read-out: Activity.
Data set [13] concerns B16. In words: cells. Particulars: Mus musculus, B16, 24 h, read-out: INH. This is another data set of the same source.
Description: Inhibition of alpha-MSH-induced melanin production in mouse B16 cells at 10 uM after 24 hrs relative to control
Data set [14] relates to B16. In words: cells. Particulars: Mus musculus, B16, 24 h, read-out: INH. This is another data set of the same source.
Description: Inhibition of alpha-MSH-induced melanin production in mouse B16 cells at 5 uM after 24 hrs relative to control
In data set [15] the target is T1, Tyrosinase (Mus musculus). In words: Inhibition of tyrosinase in alpha-MSH-induced mouse B16 cells at 2.5 uM. The format is cell-based.
Data set [16] deals with B16. In words: Cytotoxicity against mouse B16 cells assessed as viable cells at 10 uM after 48 hrs by MTT assay relative to control. Type of data set: functional. Particulars: B16, 48 h, read-out: Activity.
For data set [17], the target named is T2, Tyrosinase. This is another data set of the same source.
Description: Inhibition of mushroom tyrosinase using L-tyrosine as a substrate
Data set [18] deals with T2, Tyrosinase. This is another data set of the same source.
Description: Inhibition of mushroom tyrosinase at 20 uM by Lineweaver-Burk plot analysis
For data set [19], the target named is T1, Tyrosinase (Mus musculus). In words: Inhibition of tyrosinase in alpha-MSH-induced mouse B16 cells at 1 uM. The format is cell-based.
Substrate in data set [20]: Oc1ccc(-c2nc3ccccc3s2)c(O)c1
In words: (§1) Activity of mushroom tyrosinase at 20 uM by Lineweaver-Burk plot analysis. The conditions noted are these: Agaricus bisporus.

Substrate in data set [21]: Oc1ccc(-c2nc3ccccc3s2)cc1
The data set is described as §1. The conditions noted are these: Agaricus bisporus.

Substrate in data set [22]: Oc1ccc(-c2nc3ccccc3s2)c(O)c1
The conditions noted are these: Agaricus bisporus; 1.25 uM.

Substrate in data set [23]: Oc1ccc(-c2nc3ccccc3s2)cc1
The conditions noted are these: Agaricus bisporus; 1.25 uM.

For `Oc1ccc(-c2nc3ccccc3s2)c(O)c1`, the inhibition at 1 µM in data set [1] was 217%. For the same molecule, the inhibition in data set [2] was 108%; in data set [3], 99.6%; in [9], 70.8%; in [11], 49.9%; in [15] it was 111%. The inhibition at 2.5 µM in data set [4] came to 190%. Besides, the viability at 1 µM in data set [5] is 94.9%. Moreover, the inhibition at 0.2 µM in data set [6] worked out at 224%. In addition, the Ki in data set [7] turned out to be 673 nM; in [18], 7700 nM. The viability at 5 µM in data set [8] is 94.6%. Further, the viability at 0.2 µM in data set [10] came out at 96.3%. Besides, in [12], the viability at 2.5 µM turned out to be 94.7%. Further, the inhibition at 10 µM in data set [13] was 131%. The inhibition at 5 µM in data set [14] was determined as 141%. For the same molecule, the viability at 10 µM in data set [16] came out at 94.4%. Also, half-maximal inhibition in data set [17] (IC50) was put at 10 nM.
With `Oc1ccc(-c2nc3ccccc3s2)cc1`, in data set [1], the inhibition at 1 µM came out at 188%. Further, the inhibition in data set [19] is 133%; in data set [2], 97.7%; in [3], 95.2%; in data set [9], 46.2%; in data set [11] it was 45.4%; in data set [15], 98.8%. Besides, in data set [4], the inhibition at 2.5 µM was 129%. In [5], the viability at 1 µM was 98.9%. Also, the inhibition at 0.2 µM in data set [6] turned out to be 201%. Moreover, the values for the Ki in [7] and in data set [18] were 567 nM and 1700 nM, respectively. For the same molecule, in data set [8], the viability at 5 µM turned out to be 96.5%. For the same molecule, the viability at 0.2 µM in [10] was determined as 99.7%. Also, the viability at 2.5 µM in data set [12] came to 97.6%. In addition, in [13], the inhibition at 10 µM worked out at 97.1%. Moreover, the inhibition at 5 µM in data set [14] came out at 104%. Also, the viability at 10 µM in data set [16] came to 95.8%. The molecule also came in with an IC50 in [17] of 1140 nM.

B1: Tyrosinase (Agaricus bisporus), O42713 (protein)
chain: MSLIATVGPTGGVKNRLNIVDFVKNEKFFTLYVRSLELLQAKEQHDYSSFFQLAGIHGLPFTEWAKERPSMNLYKAGYCTHGQVLFPTWHRTYLSVLEQILQGAAIEVAKKFTSNQTDWVQAAQDLRQPYWDWGFELMPPDEVIKNEEVNITNYDGKKISVKNPILRYHFHPIDPSFKPYGDFATWRTTVRNPDRNRREDIPGLIKKMRLEEGQIREKTYNMLKFNDAWERFSNHGISDDQHANSLESVHDDIHVMVGYGKIEGHMDHPFFAAFDPIFWLHHTNVDRLLSLWKAINPDVWVTSGRNRDGTMGIAPNAQINSETPLEPFYQSGDKVWTSASLADTARLGYSYPDFDKLVGGTKELIRDAIDDLIDERYGSKPSSGARNTAFDLLADFKGITKEHKEDLKMYDWTIHVAFKKFELKESFSLLFYFASDGGDYDQENCFVGSINAFRGTAPETCANCQDNENLIQEGFIHLNHYLARDLESFEPQDVHKFLKEKGLSYKLYSRGDKPLTSLSVKIEGRPLHLPPGEHRPKYDHTQARVVFDDVAVHVIN
B1: the Km in data set [20] worked out at 1460 µM; in data set [21], 5650 µM; in data set [22], 1160 µM; in data set [23], 1020 µM.
